One compound from US20200140375A1, “COMPOSITIONS AND METHODS FOR TREATING CONDITIONS ASSOCIATED WITH ALTERED TCA CYCLE METABOLISM” (IMBRIA PHARMACEUTICALS, INC., priority 2017, published 2020) can be followed below.

This data set in a line: solubility in water. It is filed as physicochemical. The source says:
The compound of formula (XIII) was made and analyzed.

On to `N[C@@H](COC(=O)CCC(=O)OCC(O)CO)C(=O)O` (stereo partly shown) [formula (XIII)], for which the solubility – broadly, how much of the substance goes into solution per volume – is 1200 mg/mL.
